Patent US20090312361A1, “NOVEL PHARMACEUTICAL COMPOSITIONS FOR TREATING ACQUIRED CHRONIC PAIN AND ASSOCIATED DYSPHORIA” (priority 2004, published 2009)

What was measured:
[1] = molecular target: μ-opiate receptors (Homo sapiens, UniProt P35372); details: cited from earlier work
[2] = tested on: child; details: 4 mg/kg of tramadol to a child; cited from earlier work
[3] = cited from earlier work; for accumulation: during multiple dose treatment with tramadol
[4] = tested on: pain; details: cited from earlier work
[5] = tested on: neurogenic pain in the distal lower limbs, feet and digits; lower back pain; assay: Treatment of patient with severe back pain (Patient 1, case report); details: Patient 1, oral tramadol at doses up to 500 mg per day as needed
[6] = tested on: neuropathic pain (secondary peripheral distal neuropathy of both feet and legs); assay: Treatment of patient suffering from diabetic neuropathy (Patient 2, case report); format: in vivo, human
Procedure: Patient 2 was a person with a history of untreated diabetes. Secondary peripheral distal neuropathy of both feet and legs was among the patients' clinical complaints. […] The patient gradually self escalated the dosage of aspirin to 10 to 12×325 mg tablets per day. The patient then presented after self treatment for several weeks at the emergency room complaining of gastric pain and blood in the vomitus. […] The patient was stabilized through dietary intervention with antacids and released after several days.

[7] = cited from earlier work

μ-opiate receptors, sequence (P35372 whole entry): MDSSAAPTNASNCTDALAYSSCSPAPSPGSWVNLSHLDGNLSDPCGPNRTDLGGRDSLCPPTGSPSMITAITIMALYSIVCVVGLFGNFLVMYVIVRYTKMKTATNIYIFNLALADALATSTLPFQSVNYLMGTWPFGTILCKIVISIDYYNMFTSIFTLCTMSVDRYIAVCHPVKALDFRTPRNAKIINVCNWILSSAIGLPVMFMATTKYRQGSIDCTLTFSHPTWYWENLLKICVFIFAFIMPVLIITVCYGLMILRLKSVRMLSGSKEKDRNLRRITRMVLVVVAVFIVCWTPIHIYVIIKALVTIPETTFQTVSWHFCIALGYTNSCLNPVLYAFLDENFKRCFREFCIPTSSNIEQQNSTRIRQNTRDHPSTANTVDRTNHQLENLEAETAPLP

Compound: COc1cccc(C2(O)CCCCC2CN(C)C)c1 (racemic) [tramadol, (+/−)-trans (RR,SS)-2-[(di-methylamino)methyl]-1-(3-methoxyphenyl)cyclohexanol]
- affinity for μ-opiate receptors, fold less than codeine ([1]; relative to codeine): 10 fold
- affinity for μ-opiate receptors, fold less than d-propoxyphene ([1]; relative to d-propoxyphene): 100 fold
- affinity for μ-opiate receptors compared with dextromethorphan ([1]; relative to dextromethorphan): equivalent to dextromethorphan
- affinity for μ-opiate receptors, fold less than morphine ([1]; relative to morphine): 6.000 fold
- adverse effect after inadvertent administration [2]: seizure activity
- time to peak serum concentrations ([3]; after oral administration): ≤ 2 h
- accumulation [3]: approximately 2 fold
- duration of the analgesic effect ([4]; after a single oral dose of tramadol 100 mg): about 6 hours
- reported pain range [5]: tolerable
- side effects [5]: no significant side effects

Compound: CN(C)C[C@H]1CCCC[C@]1(O)c1cccc(O)c1 [M1 derivative, O-desmethyltramadol]
- accumulation [3]: approximately 2 fold
- analgesic potency relative to the parent drug ([4]; relative to tramadol): at least twice the analgesic potency of the parent drug

Compound: CC(=O)Oc1ccccc1C(=O)O [aspirin, acetylsalicylic acid]
- diagnosis after self treatment ([6]; Patient 2, 10 to 12×325 mg tablets per day for several weeks): gastro-esophageal erosion and hemorrhage
- control of neuropathic pain ([6]; Patient 2, treatment with aspirin and other NSAIDs): only marginally effective

Compound: Cn1c(=O)c2c(ncn2C)n(C)c1=O [caffeine, 3,7-dihydro-1,3,7-trimethyl-1H-purine-2,6-dione]
- time to maximal plasma concentrations ([7]; after oral, rectal or parenteral administration): ≤ 1 h
- half-life in plasma ([7]; in vivo): 3 to 7 h
